This passage reports melting point results from a melting point compilation (Tetko et al.; mined from patent text by program, amines drawn as free bases though some values may be those of a salt).

For orientation: melting point means the temperature, or range, at which the solid turns liquid. `C=C(C)COc1ccc2c(C)cc(=O)oc2c1C(=O)C=Cc1cccnc1` displayed a melting point of 110 to 112 °C.
Then `CC(=O)O[C@H]1CC=CO[C@@H]1COS(=O)(=O)c1ccc(C)cc1`, with 76 to 79 °C; and `NCc1ccc(C2CCN(c3nc4c(cc3F)c(=O)c(C(=O)O)cn4C3CC3)C2)cc1` (centres undefined), with 268 to 272 °C; and `CCCC(O)(Cn1nc[nH]c1=S)c1ccc(Cl)cc1Cl` (centres undefined), with 148 °C.
As to `CS(=O)(=O)Nc1ccc(CNC(=O)c2cccnc2Oc2ccc(F)cc2)cc1`, the melting point was 107 to 109 °C.
Then `CC(=O)Cc1ccc(OCC2CO2)cc1` (centres undefined), with 43 °C; and `O=[N+]([O-])c1c(C=NO)cccc1OCc1ccccc1`, with 141 to 142 °C.
`O=C(Cl)CC1(c2ccccc2)C(=O)Oc2ccc(Cl)cc21` (centres undefined) returned a melting point of 107 °C.
Regarding `COCCNc1nc2ccccc2n(-c2ccc(Cl)cc2)c1=O`, the melting point was in the range of 151 to 152 °C.
In the case of `CCN1CCN(C(=O)N2CCC(N3N=C(c4ccc(OC)c(OC)c4)[C@H]4CC=CC[C@H]4C3=O)CC2)C(=O)C1=O` it was 226 to 228 °C; in that of `Cc1cccc(Cl)c1NC(=O)N=C1NCCN1`, 169 to 171 °C; in that of `COC1C(O)C(CO)OC1n1ccc(=O)[nH]c1=O` (centres undefined), 158 to 159 °C.
Consider `Cc1cc(Cl)nc(Nc2ccccc2[N+](=O)[O-])n1`, for which the melting point is 175 °C.
Regarding `O=C(O)CCc1cccc(CCc2nc(-c3ccccc3)c(-c3ccccc3)o2)c1`, the melting point lay within 119 to 120 °C.
In the case of `O=C(NCCCSc1ccccn1)c1cccs1`, the melting point lay in the range of 81 to 82 °C.
Take `Cc1nn(-c2ccccc2)c(-c2ccccc2)c1NC(N)=S`: the melting point was 212 to 214 °C.
`CCN1c2ncc(/C=C/c3ccncc3)cc2C(=O)N(C)c2cccnc21`: the melting point is 150 °C.
`CN(C)C(=O)Sc1ccc(C(=O)c2ccccc2C#N)cc1` displayed a melting point of 112 °C.
In the case of `COC(=O)c1nn(-c2ccccc2)c2sc(CN3CCOCC3)cc2c1=O` it was 167 to 169 °C.
On to `O=C1CC(c2sccc2Cl)=Nc2ccc(-c3ccc(F)cc3)cc2N1`, for which the melting point fell in the range of 255 to 256 °C.
In the case of `O=c1c2[nH]cnc2n(CC2CC2)c(=O)n1CC1CC1` it was 203 °C.
In the case of `Cc1ccc(Cl)cc1NS(=O)(=O)c1cc(S(=O)(=O)Nc2cc(Cl)ccc2C)c2ccccc2c1` it was 125 to 127 °C; in that of `CC(C)Oc1cccc(OC(=O)NCc2c(-c3ccccc3)c3cc(Cl)ccc3c(=O)n2C)c1`, 158 to 160 °C.
In the case of `CCOC(=O)c1cn(C2COC2)c2cc(F)c(F)c(OCc3ccccc3)c2c1=O`, the melting point was in the range of 220 to 222 °C.
In the case of `Cc1ccc(-c2nc(CCCC#N)c(C(F)(F)F)o2)cc1`, the melting point lay within 41 to 42.5 °C.
`CN(C(=O)Cc1ccccc1)c1cccc(-c2ccc(CC3SC(=O)NC3=O)cc2)c1` (centres undefined): the melting point was 138 °C.
For `CC1(C)OC[C@H](COc2nc(S(C)(=O)=O)nc3[nH]nc(-c4ccccc4Cl)c23)O1`, the melting point was 161 to 162 °C.
For `COc1ccccc1-n1c(=O)[nH]c2c(C(N)=O)nc(-c3ccc4nc(C)[nH]c4c3)nc21`, the melting point stood at 270 °C.
In the case of `CNC(=O)N(O)Cc1ccc2c(c1)OCc1ccccc1C2=O` it was 155 to 157 °C.
Then `C#CCOc1cc(C(=O)O)cc([N+](=O)[O-])c1C(=O)c1ccccc1`, with 169 to 172 °C; and `COCCOCCOC(=O)/C=C/C(=O)/C=C/c1cccc(OC)c1`, with 59 to 60 °C; and `O=CN(O)C(CCO)CS(=O)(=O)c1ccccc1Oc1ccc(OC(F)(F)F)cc1` (centres undefined), with 120 to 123 °C.
`COc1cccc2c(=O)n(C)c(-c3ccc(OC4CCN(C5CCC5)CC4)cc3)nc12`: the melting point lay within 201 to 204 °C.
Then `CCN1CCCC(NC(=O)c2ccccc2Nc2ccnc3c(Cl)cccc23)C1` (centres undefined), with 173 to 175 °C; and `Cc1ccc(C(=O)c2ccc(Cl)cc2)cc1`, with 129 to 130 °C.
Turning to `Clc1ccc(C2CC(n3cncn3)c3ccccc3N2)cc1` (centres undefined), the melting point was 150 to 152 °C.
The compound `CC(Cc1ccccc1)(C(=O)NO)S(=O)(=O)c1cccs1` (centres undefined) had a melting point of 116 to 117 °C.
As to `COC(=O)C(NC(=O)C1CCCS1)C(C)C` (centres undefined), the melting point lay within 55 to 65 °C.
`CC1(C)CC(N2C(=O)C=CC2=O)CC(C)(C)N1OC1CCCCC1`: the melting point was in the range of 135 to 139 °C.
`COc1cc(C=O)cc(OC)c1N`: the melting point fell in the range of 94 to 96 °C.
`CCOc1ccc(C(=O)Nc2ccccc2)cc1Nc1cccc(C(F)(F)F)c1`: the melting point was in the range of 184 to 185 °C.
Turning to `Cc1nc2ccc3cnc(N(C)c4cccc([N+](=O)[O-])c4)nc3c2s1`, the melting point was 209 to 210 °C.
In the case of `COc1cc(C=CC=O)ccc1OC(C)c1nc(-c2ccccc2)oc1C` (centres undefined) it was 152 to 153 °C.
Turning to `CCn1ncc2c1ncc1c(SC)nc3ncnn3c12`, the melting point lay in the range of 198 to 200 °C.
In the case of `COc1ccc(CNCC(O)c2ccccc2)cc1OC` (centres undefined), the melting point was in the range of 93 to 94 °C.
As to `CCOC(=O)c1c(CCl)nc2sc3c(c2c1-c1ccc(OC)c(OC)c1)CCCN3C(=O)OCc1ccccc1`, the melting point was in the range of 178 to 179 °C.
Turning to `C=C(C1=C(CCC(=O)OC)C(=O)CC1OCc1ccc(Cl)cc1)c1ccccc1` (centres undefined), the melting point fell in the range of 114 to 115 °C.
`CNC(=O)[C@@H]1CCCN1S(=O)(=O)c1ccc(Cl)c(COc2cccc3c(-n4ccnc4)cc(C)nc23)c1Cl` had a melting point of 90 °C.
As for `O=C(O)C1CCCCCCCSC[C@@H](C(=O)O)NC1=O` (some centres undefined), the melting point lay within 167 to 170 °C.
In the case of `COCCS(=O)(=O)c1ccccc1S(N)(=O)=O` it was 120 to 123 °C.
Then `CN(C)C=Nc1[nH]nc(-c2cccc([N+](=O)[O-])c2)c1C#N`, with 221 to 225 °C.
As to `CCOC(=O)c1nn(-c2ccc(Cl)cc2Cl)c(-c2cccs2)c1C`, the melting point lay within 121 to 122 °C.
Compound `O=C(NCC1CC1)Nc1ccc(N2CCOCC2)cc1C(=O)NCC1CCN(C(c2ccccc2)c2ccccc2)CC1` yielded a melting point of 218 to 220 °C.
`O=C(O)C1(c2ccc(CN3CCN(c4ccc(F)cc4)CC3)cc2)CC1` showed a melting point of 74 to 77 °C.
`CCCSc1sc(C(=O)OCC)c2c1C(=O)C(Br)CC2` (centres undefined) returned a melting point of 93 to 94 °C.
The compound `CN(C)CCC1(CO)c2ccccc2N(C)c2ccc(Cl)cc21` (centres undefined) had a melting point of 100 °C.
The compound `O=C(O)CNC(=O)c1nc(Cl)c2ccc(OCc3ccccc3)cc2c1O` registered a melting point of 210 to 211 °C.
The compound `CC(NSc1nc2ccccc2s1)c1ccccc1` (centres undefined) gave a melting point of 50 to 53 °C.
Compound `O=C1CCC(N2Cc3c(O)cccc3C2=O)C(=O)N1` (centres undefined) returned a melting point of 296 °C.
For the compound `O=C(O)c1ccccc1C(=O)c1ccc(F)cc1F`, the melting point is 129 to 131 °C.
In turn, `O=C(O)c1ccc(OCCCCc2cc(-c3ccc(C(F)(F)F)cc3)no2)cc1` displayed a melting point of 170 to 171 °C.
Turning to `CC(C)(C)OC(=O)N[C@H]1COc2ccccc2N(CC(=O)OCc2ccccc2)C1=O`, the melting point lay in the range of 122 to 124 °C.
In the case of `CC(=O)OC1CCC2C3CCc4cc(O)c(C=O)cc4C3CCC12C` (centres undefined) it was 184 °C; in that of `COC(=O)Cn1c(C)cc(CC2CCCCC2)c([N+](=O)[O-])c1=O`, 128 °C.
In the case of `O=C1NC(=O)C(Cc2ccc(OCCN3CCOCC3)cc2)S1` (centres undefined) it was 188 to 189 °C.
As to `COCCOc1ccc(OCC2(O)CN3CCC2CC3)cc1` (centres undefined), the melting point was 93 to 95 °C.
For `C[C@@H]1CCNC[C@@H]1N(C)c1ncnc2[nH]ccc12`, the melting point stood at 158 °C.
The compound `CC(C)n1nc(-c2sc(C(N)=O)nc2-c2cccc(Cl)c2)ccc1=O` gave a melting point of 232 to 234 °C.
`CC(C)(C)CN(CC(O)C(Cc1ccccc1)NC(=O)C(CC(N)=O)NC(=O)c1ccc2ccccc2n1)C(=O)NC(C)(C)C` (centres undefined): the melting point is 115 to 117 °C.
The compound `O=C(NC1CCCCC1)c1c(O)c2cc(F)ccc2n(Cc2ccc(F)cc2)c1=O` had a melting point of 118 °C.
Turning to `COC(=O)C1=C(C)Nc2nccn2C1c1cccc(C(C)=O)c1` (centres undefined), the melting point fell in the range of 227 to 229 °C.
In the case of `COc1ccc2ncc3ncn(-c4ccccc4Cl)c3c2c1`, the melting point lay in the range of 202 to 205 °C.
`O=C1COc2ccc(N3C(=O)C4=C(CCCC4)C3=O)cc2N1CC1CCOCC1` returned a melting point of 187 to 189 °C.
In turn, `CCCc1cc(Cn2c(=O)ccc3c(CC)nc(CC)cc32)ccc1O[Si](C)(C)C(C)(C)C` yielded a melting point of 103 to 105 °C.
Compound `COc1ccc(Nc2ccc(C(=O)O)cc2)c2ccccc12` came in with a melting point of 153 to 154 °C.
In the case of `CC(C)(C)OC(=O)N1CC=C(c2ccc3[nH]c(=O)[nH]c3c2)CC1` it was 244 to 245 °C; in that of `CCCn1c(=O)c2c(nc(/C=C/c3ccccc3)n2C)n(CCC)c1=O`, 163 °C; in that of `Cn1cc(-c2ccccc2)c(=O)c(-c2cccc(Cl)c2)c1`, 172 °C.
In turn, `COc1cc(OC)c(C(O)C(Cl)(Cl)Cl)cc1OC` (centres undefined) showed a melting point of 162 to 164 °C.
Consider `Cc1c(-c2ccccc2F)[nH]c(NCc2ccccc2)c1C#N`, for which the melting point was 151 to 152 °C.
The compound `N#C/C=C/C1CN(C(c2ccccc2)c2ccccc2)C1` came in with a melting point of 108 to 110 °C.
As to `CCOC(=O)[C@@H](CNC(=O)c1ccccc1)[C@H](O)C(F)(F)F`, the melting point fell in the range of 108 to 110 °C.
`CCOC(=O)c1cc2c3c(ccc2[nH]1)OC[C@H](CO)O3`: the melting point lay within 152 to 153 °C.
Regarding `Cc1c(C(=O)Nc2ccc(SCCCO)c(C#N)c2)cnn1-c1ccc(Cl)cc1`, the melting point is 165 °C.
Then `O=C(O)CCCCCn1sc2ccccc2c1=O`, with 59 to 61 °C.
`CC(C)c1ccc(Cn2[nH]c(N)cc2=O)cc1` displayed a melting point of 105 °C.
Then `Cc1cc2ccncc2c(=N)c2ccccc12`, with 165 to 168 °C; and `Cc1ccc2c(c1)N(CC(=O)c1ccccc1C)C(=O)C(NC(=O)Nc1ccc(F)c(C(=O)O)c1)CN2C(=O)C(C)(C)C` (centres undefined), with 225 to 228 °C.
In the case of `CC(=NO)C(C)(C)COc1ccc(F)cc1` it was 65 to 66 °C.
